Data reported in US20260000781A1, “FC CONJUGATES INCLUDING AN INHIBITOR OF CD73 AND USES THEREOF” (Cidara Therapeutics, Inc., priority 2022, published 2026).

Test system: breast tumor cell line EMT-6
Experiment: Syngeneic mouse tumor efficacy model with breast tumor cell line EMT-6
Type: in vivo
Details: EMT-6, IP
Experimental: Tumor efficacy models were conducted in female BALB/c mice (Charles River laboratories; 18-22 g) injected with the breast tumor cell line EMT-6 (ATCC; CRL-2755). Briefly, EMT-6 cells propagated and prepared by standard methods were resuspended in PBS and injected subcutaneously (in a 100 μL volume) into the shaved right flank of mice. Five days after cell injection, and prior to measurable tumor formation, treatment was initiated via IP injection (10 mL/kg) of test articles or controls. […] The test article was Conjugate 172a dosed at 30 mg/kg twice weekly, for 3 weeks. The final group consisted of mice dosed with both the anti-PD-1 mAb and Conjugate 172a at 30 mg/kg using the respective dosing schedules for each.
Each group consisted of 15 animals and tumors were measured 3× weekly with calipers on Mon/Wed/Fri. Tumor volumes were calculated based on the following formula: [(width×width×length)/2]. All tumors were monitored until the maximum allowed volume was reached (=>2,000 mm^3).
Although occasionally an animal would be removed from study if the tumor grew internally causing undo stress to the animal, or the inability to measure the tumor accurately. Data was analyzed and graphed with Graphpad Prism 6.00. Where conducted, statistical evaluation used the Mann-Whitney variation of the t-test. […]

SMILES: C[C@H](Nc1cc(Cl)nc2c1cnn2[C@@H]1O[C@H](COP(=O)(O)CP(=O)(O)O)[C@@H](O)[C@H]1O)c1ccccc1F [AB680]
- % Complete regression (Day 36) (15 animals per group, regimens as for % tumor reduction): 6.7%
- % Tumor reduction (Day 22) (Conjugate 172a 30 mg/kg twice weekly for 3 weeks, AB680 30 mg/kg daily, anti-PD-1 mAb on Day 0, 2, 4, 7, 9, 12): 0%
